Assay results from patent US4067997A, “Synergistic microbecidal composition and method” (priority 1976, dated 1978).
In brackets after ≈: the same amount, converted by molar mass. Read-outs that look alike come from different tables or passages of the source.

Key:
Bacillus subtilis = experiment: MIC, agar dilution method (Example XVI); assay type: cell-based; conditions: Table 19, agar dilution
Text: (§1) In a manner similar to that described in Example V, the effectiveness of certain food-grade microbecides are compared with mono-esters in an agar dilution method. The very favorable results may be noted from Table 19.

Pseudomonas aeruginosa = experiment: MIC, agar dilution method (Example XVI); assay type: cell-based; conditions: Table 19, agar dilution
Text: as §1

Canadida albicans = experiment: MIC, agar dilution method (Example XVI); assay type: cell-based; conditions: Table 19, agar dilution
Text: as §1

Escherichia coli = experiment: MIC, agar dilution method (Example XVI); assay type: cell-based; conditions: Table 19, agar dilution
Text: as §1

Staphylococcus aureus = experiment: MIC, agar dilution method (Example XVI); assay type: cell-based; conditions: Table 19, agar dilution
Text: as §1

Aspergillus niger = experiment: MIC, agar dilution method (Example XVI); assay type: cell-based; conditions: Table 19, agar dilution
Text: as §1

Sarcina = experiment: MIC, broth dilution (Examples I/II); assay type: cell-based, Sarcina lutea (9431); conditions: for MIC: > = no inhibition, max. tested
Description: (§2) In order to establish comparative bactericidal and fungicidal results with homologous fatty acids, a series of experiments was performed with thirty straight-chain fatty acids and derivatives thereof. Eight different gram-negative and twelve different gram-positive organisms, representing a very broad spectrum of organisms, were used in these experiments including the fungus Candida (a yeast). Additionally, fatty acids were chosen to show the effects of saturation versus unsaturation, in the fatty acid claim. Standard solutions of the fatty acids and their derivatives were prepared by first dissolving the weighed compounds in 1 to 2 ml of 95% ethanol and immediately pouring this solution into 200 ml of Tripticase Soy Broth. These lipid compounds which are insoluble in water and broth precipitated into very small crystals or droplets. The tubes containing the suspension were warmed to approximately 70° C and were then placed in an ultrasonic tank for further solubilization of the lipid derivatives.
(§3) Standard solutions (or suspensions) at 1,000 μg/ml were twofold serially diluted with additional broth to a concentration of 125 μg/ml. A 4-ml amount of each dilution was then quickly, and with constant agitation, dispensed into appropriately labeled screw-capped glass tubes (16 by 125 mm). The tubes were sterilized with steam at 15 psi for 15 minutes. After sterilization, all tubes were cooled and incubated overnight at 35° C to insure sterility.
(§4) All compounds were compared on a molar (micromoles/milliliter) rather than on a mass basis. In the following lists of organisms used, those followed by a parenthetical number are registered with the American Type Culture Collection (ATCC); the remainder were isolates from Providence Hospital or Northland Laboratory.
(§5) One drop (0.04 ± 0.01 ml) of an 18-hr broth culture containing 10^7 and 10^9 organisms/ml was added to each dilution of the test compound, as well as to a tube of plain broth which served as the positive control. After inoculation, the contents of each tube were well mixed, and the tubes were incubated at 35° C in a 5% carbon dioxide + […] atmosphere.
(§6) The MIC is defined as the lowest concentration of compound at which no […] evidence of growth was observed when turbidity of the inoculated broth dilutions was compared with control tubes. […] Only a one-tube difference between the bactericidal and bacteriostatic concentrations was normally observed.
(§7) Standard solutions (1000 μg/ml) of three fatty acids and polyglycerol esters thereof were prepared as described in Example I. Also sucrose esters were prepared by transferring the weighed compounds (0.2 gm. dissolved in 1 ml absolute methanol) into 200 ml of sterile Trypticase Soy Broth (TSB). These standard solutions (1000 μg/ml) were twofold serially diluted with additional sterile broth to a concentration of 125 μg/ml. A 3.8 aliquot of each dilution was asceptically delivered into sterile screw-capped culture tubes. All tubes were incubated overnight at 36° C to insure sterility. The microorganisms used in this example were the same as those used in Example I.
(§8) The inoculum, 0.05 ml of an 13-24 hour TSB culture (approximately 10^9 organisms/ml) was asceptically delivered into all dilutions of the compounds, mixed well, and incubated at 36° C. A tube of inoculated broth without the compound served as a positive control and an uninoculated set of dilutions incubated along with the test dilutions, served as a negative control.
(§9) In those cases in which the test compound itself caused turbidity, an aliquot (0.015 ml) of the mixed broth was inoculated onto an agar plate and incubated at 36° C for examination, as described in Example I. The control procedure of Example I was also repeated. The lauric, capric, and oleic acids were used as internal controls and for comparison to Example I. The minimal inhibitory concentrations (μmole/ml) for the compounds studied are given in Tables 7 and 8.

Corynebacteria = experiment: MIC, broth dilution (Examples I/II); assay type: cell-based, Corynebacterium sp. (10700); conditions: for MIC (second value, in parentheses): parentheses not explained
Description: as §2, §3, §4, §5, §6, §7, §8, §9

Streptococcus Group D = experiment: MIC, broth dilution (Examples I/II); assay type: cell-based; conditions: Table 7, Strep. Grp. D; > = no inhibition, max. tested
Description: as §2, §3, §4, §5, §6, §7, §8, §9

S. epidermidis = experiment: MIC, broth dilution (Examples I/II); assay type: cell-based; conditions: for MIC: > = no inhibition, max. tested
Description: as §2, §3, §4, §5, §6, §7, §8, §9

Streptococcus Group A = experiment: MIC, broth dilution (Examples I/II); assay type: cell-based, beta-hemolytic streptococci Group A; conditions: for MIC (second value, in parentheses): parentheses not explained
Description: as §2, §3, §4, §5, §6, §7, §8, §9

Micrococci = experiment: MIC, broth dilution (Examples I/II); assay type: cell-based, Micrococcus sp.
Description: as §2, §3, §4, §5, §6, §7, §8, §9

[1] = system: Streptococcus β-hemolytic Non-A; experiment: MIC, broth dilution (Examples I/II); assay type: cell-based, beta-hemolytic streptococci non-group A; conditions: Table 7, Strep. β-hemo. Non-A
Description: as §2, §3, §4, §5, §6, §7, §8, §9

Pneumococci = experiment: MIC, broth dilution (Examples I/II); assay type: cell-based, pneumococcus (63001); conditions: Table 8, Pneumococci
Description: as §2, §3, §4, §5, §6, §7, §8, §9

Nocardia asteroides = experiment: MIC, broth dilution (Examples I/II); assay type: cell-based, Nocardia asteroids (3308); conditions: Table 8, Nocardia asteroides; for MIC (second value, in parentheses): parentheses not explained
Description: as §2, §3, §4, §5, §6, §7, §8, §9

Compound | MIC (Sarcina; Table 7, Sarcina) | MIC (Corynebacteria; Table 7, Cornebacteria) | MIC (Streptococcus Group D) | MIC (S. epidermidis; Table 7, Staph epider.) | MIC (Streptococcus Group A; Table 7, Strep. Grp. A) | MIC (Micrococci; Table 7, Micrococci) | MIC [1] | MIC (Sarcina; Table 8, Sarcina) | MIC (Corynebacteria; Table 8, Corynebacteria) | MIC (S. epidermidis; Table 8, Staph. epider.) | MIC (Streptococcus Group A; Table 8, Strep. Grp. A) | MIC (Pneumococci) | MIC (Micrococci; Table 8, Micrococci) | MIC (Nocardia asteroides) | MIC (second value, in parentheses) (Corynebacteria; Table 8, Corynebacteria) | MIC (second value, in parentheses) (Streptococcus Group A; Table 8, Strep. Grp. A) | MIC (second value, in parentheses) (Nocardia asteroides) | other results
C/C=C/C=C/C(=O)O [Sorbic acid] | – | – | – | – | – | – | – | – | – | – | – | – | – | – | – | – | – | MIC (Bacillus subtilis; Bacillus subtilis, read-out: MIC): 1000 µg/mL (≈ 8.92 mM); MIC (Pseudomonas aeruginosa; Pseudomonas aeruginosa, read-out: MIC): 2000 µg/mL (≈ 17.8 mM); MIC (Canadida albicans; read-out: MIC): 1000 µg/mL (≈ 8.92 mM); MIC (Escherichia coli; Escherichia coli, read-out: MIC): 1000 µg/mL (≈ 8.92 mM); MIC (Staphylococcus aureus; Staphylococcus aureus, read-out: MIC): 1000 µg/mL (≈ 8.92 mM); MIC (Aspergillus niger; Aspergillus niger, read-out: MIC): 1000 µg/mL (≈ 8.92 mM)
C[CH2][Hg][S]c1ccccc1C(=O)[O-].[Na+] [Thimerosal] | – | – | – | – | – | – | – | – | – | – | – | – | – | – | – | – | – | MIC (Bacillus subtilis): 0.39 µg/mL; MIC (Pseudomonas aeruginosa): 6.30 to 12.50 µg/mL; MIC (Canadida albicans): 0.10 to 0.20 µg/mL; MIC (Escherichia coli): 1.60 µg/mL; MIC (Staphylococcus aureus): 0.78 µg/mL; MIC (Aspergillus niger): 0.10 µg/mL
Decaglycerol monolaurate | > 1060 µM | 530 µM | > 1060 µM | > 1060 µM | 260 µM | 530 µM | 530 µM | – | – | – | – | – | – | – | – | – | – | –
Hexaglycerol monocaprate | > 1580 µM | 390 µM | > 1580 µM | > 1580 µM | 190 µM | 790 µM | 790 µM | – | – | – | – | – | – | – | – | – | – | –
Hexaglycerol monolaurate | > 1520 µM | 380 µM | > 1520 µM | > 1520 µM | 190 µM | 380 µM | 380 µM | – | – | – | – | – | – | – | – | – | – | –
Sucrose caprate | – | – | – | – | – | – | – | > 2000 µM | 250 µM | > 2000 µM | 60 µM | 60 µM | 1000 µM | 250 µM | – | – | – | –
Sucrose elaidate | – | – | – | – | – | – | – | > 1640 µM | 1640 µM | > 1640 µM | 200 µM | 200 µM | 820 µM | 200 µM | – | – | – | –
Sucrose laurate | – | – | – | – | – | – | – | > 1900 µM | 470 µM | > 1900 µM | 30 µM | 120 µM | 1900 µM | 470 µM | 230 µM | 120 µM | 1900 µM | –
Sucrose linoleate | – | – | – | – | – | – | – | > 1660 µM | > 1660 µM | > 1660 µM | 410 µM | 50 µM | 820 µM | 410 µM | 1660 µM | 820 µM | 1660 µM | –
Sucrose myristate | – | – | – | – | – | – | – | > 1840 µM | 110 µM | > 1840 µM | 50 µM | 230 µM | 230 µM | 230 µM | 110 µM | 110 µM | 110 µM | –
Sucrose oleate | – | – | – | – | – | – | – | > 1640 µM | > 1640 µM | > 1640 µM | > 1640 µM | 50 µM | 210 µM | 410 µM | > 1640 µM | 410 µM | 210 µM | –
Sucrose palmitate | – | – | – | – | – | – | – | 430 µM | 430 µM | 860 µM | 100 µM | 50 µM | 260 µM | 430 µM | 260 µM | 200 µM | > 1720 µM | Inhibition in words (Sarcina; Sarcina): only ester which inhibits S. epidermis and Sarcina; Inhibition in words (S. epidermidis; S. epidermis): only ester which inhibits S. epidermis
Triglycerol monolaurate | 1180 µM | 240 µM | > 2360 µM | > 2360 µM | 290 µM | 290 µM | 590 µM | – | – | – | – | – | – | – | – | – | – | –
